US11186602B2, “Glucopyranosyl derivative and use thereof” (SUNSHINE LAKE PHARMA CO., LTD., priority 2018, dated 2021)

Biological target: T1, human SGLT1 (Homo sapiens, UniProt P13866)
T1 construct: expressed in transfected cells; host or cells: CHO cells (Flp-in CHO)
T1 sequence (P13866 1-664): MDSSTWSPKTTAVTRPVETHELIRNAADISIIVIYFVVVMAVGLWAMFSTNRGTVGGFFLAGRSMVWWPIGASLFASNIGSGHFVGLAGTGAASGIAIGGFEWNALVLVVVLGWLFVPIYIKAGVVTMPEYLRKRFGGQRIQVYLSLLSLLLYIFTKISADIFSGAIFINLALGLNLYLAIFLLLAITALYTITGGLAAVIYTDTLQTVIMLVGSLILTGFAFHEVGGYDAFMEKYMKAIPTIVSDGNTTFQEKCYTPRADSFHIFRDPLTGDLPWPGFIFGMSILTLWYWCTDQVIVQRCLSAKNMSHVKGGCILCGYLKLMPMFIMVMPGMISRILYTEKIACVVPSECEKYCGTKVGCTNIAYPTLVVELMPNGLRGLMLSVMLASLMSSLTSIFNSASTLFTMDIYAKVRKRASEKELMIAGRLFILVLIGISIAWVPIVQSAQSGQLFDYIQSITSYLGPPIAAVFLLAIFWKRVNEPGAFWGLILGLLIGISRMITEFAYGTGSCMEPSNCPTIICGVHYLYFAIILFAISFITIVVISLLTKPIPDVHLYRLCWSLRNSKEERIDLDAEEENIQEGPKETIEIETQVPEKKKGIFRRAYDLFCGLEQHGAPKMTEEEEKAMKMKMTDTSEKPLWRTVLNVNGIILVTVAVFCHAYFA
Assay: Determination of SGLT1 inhibitory activity ([14C]-AMG uptake in CHO cells expressing human SGLT1)
Format: cell-based
Details: CHO cells expressing human SGLT1, [14C]-AMG uptake, 37° C. for 1 hour
Protocol: Mock-transfected FIP-in CHO cells (3×10^4 cells) and CHO cells expressing human SGLT1 gene were seeded into 96-well plates respectively. The cells were incubated for 12 hours. Each well of the 96-well plates was washed with 150 μL of sodium-free buffer once. To each well was added 50 μL of sodium-containing buffer containing test compounds having different concentrations and 0.5 μm [^14C]-AMG And the mixture in the well was incubated at 37° C. for 1 hour. To each well was added 150 μL of precooled sodium-free buffer to terminate the reaction. The cell pellet was washed with sodium free buffer three times and the residual liquid in well was removed. To each well was added 20 μL of precooled 100 mM NaOH, and the 96-well plates were vibrated at 900 rpm for 5 minutes. Scintillation fluid (80 μL) was added to each well which was then vibrated at 600 rpm for 5 minutes. The amount of 14C-AMG was quantitatively detected using liquid scintillation.

IC50 [nM] | Compound
1.73 | Cc1ccc([C@]23OC[C@](C(C)(C)O)(O2)[C@@H](O)[C@H](O)[C@H]3O)cc1Cc1ccc(CCCC(=O)NC(C)(C)C(=O)NCCN2CCCC2)cc1 [Example 1, 2-Methyl-2-[4-[4-[[2-methyl-5-[(1S,2S,3S,4R,5S)-2,3,4-trihydroxy-1-(1-hydroxy-1-methyl-ethyl)-6,8-dioxabicyclo[3.2.1]octan-5-yl]phenyl]methyl]phenyl]butyrylamino]-N-(2-pyrrolidin-1-ylethyl)propionamide]
1.16 | Cc1ccc([C@]23OC[C@](C(C)(C)O)(O2)[C@@H](O)[C@H](O)[C@H]3O)cc1Cc1ccc(CCCC(=O)NC2(C(=O)NCCN3CC[C@@H](F)C3)CCCCC2)cc1 [Example 7, N-[2-[(3R)-3-fluoropyrrolidin-1-yl]ethyl]-1-[4-[4-[[2-methyl-5-[(1S,2S,3S,4R,5S)-2,3,4-trihydroxy-1-(1-hydroxy-1-methyl-ethyl)-6,8-dioxabicyclo[3.2.1]octane-5-yl]phenyl]methyl]phenyl]butyrylamino]cyclohexyl formamide]
5.75 | Cc1ccc([C@]23OC[C@](C(C)(C)O)(O2)[C@@H](O)[C@H](O)[C@H]3O)cc1Cc1ccc(CCCC(=O)N2CCC[C@H]2C(=O)NCCN(C)C)cc1 [Example 11, (2S)—N-(2-Dimethylaminoethyl)-1-[4-[4-[[2-methyl-5-[(1S,2S,3S,4R,5S)-2,3,4-trihydroxy-1-(1-hydroxy-1-methyl-ethyl)-6,8-dioxabicyclo[3.2.1]octan-5-yl]phenyl]methyl]phenyl]butyryl]pyrrolidine-2-carboxamide]
